This note sets out measurements from patent publication US12508280B2, “Formulations for improving gut health” (DSM IP ASSETS B.V., priority 2018, dated 2025).

Common to all, as to assay type: cell-based, human
For test [1], the system named is fecal inoculum of two healthy adults. The test can be described thus: Short-term colonic incubations, SCFA production (second set). The following applies: 48 h fermentation. Here is the method: In a second set of in vitro experiments, at the start of the short-term colonic incubations, the test ingredients were added to nutritional medium containing basal nutrients present in the colon (e.g. host-derived glycans such as mucin). Three doses were tested per product. The nutritional medium used for this particular project was again supplemented with NaCl, MgSO4, CaCl2, hemin and bile salts, and with carbon sources glucose, starch and cellobiose. A blank, containing the same nutritional medium as that used for the product incubations, but without product addition, was included for each donor. In doing so, an assessment can be made of the background activity of the bacterial community, which results from fermentation of compounds in the nutritional medium. As a source of the colonic microbiota a fecal inoculum of two healthy adults was added. Incubations were performed for 48 h at 37'C, under shaking (90 rpm) and anaerobic conditions and protected from light. […] Each compound was tested in three different concentrations; an overview is given in Table 2, below: Short chain fatty acids (SCFA) are an assessment of the microbial carbohydrate metabolism (acetate, propionate and butyrate) or protein metabolism (branched SCFA) and can be compared to typical fermentation patterns for normal GI microbiota. Samples for SCFA analysis were analyzed after 0, 6, 24 and 48 h of incubation for both set of in vitro experiments, above. SCFA were extracted from the samples with diethyl ether, after the addition of 2-methyl hexanoic acid as an internal standard. […], Belgium), a flame ionization detector and a split injector. The injection volume was […] and the temperature profile was set from 110 to 160° C., with a temperature increase of 6° C. min-1. […] The production of unbranched and branched SCFA was calculated by summing the molar concentrations of acetate, propionate, butyrate, valerate and caproate, and summing isobutyrate, isovalerate and isocaproate molar concentrations, respectively. The total SCFA production was defined as the sum of unbranched and branched SCFA.

Test [2] relates to colonic microbiota (fecal inoculum of two healthy adults). Nature of the test: 16S-targeted Illumina sequencing with flow cytometry, taxa abundance (second set). The following applies: 24 h fermentation. Here is the method: (§1) In a second set of in vitro experiments, at the start of the short-term colonic incubations, the test ingredients were added to nutritional medium containing basal nutrients present in the colon (e.g. host-derived glycans such as mucin). Three doses were tested per product. The nutritional medium used for this particular project was again supplemented with NaCl, MgSO4, CaCl2, hemin and bile salts, and with carbon sources glucose, starch and cellobiose. A blank, containing the same nutritional medium as that used for the product incubations, but without product addition, was included for each donor. In doing so, an assessment can be made of the background activity of the bacterial community, which results from fermentation of compounds in the nutritional medium. As a source of the colonic microbiota a fecal inoculum of two healthy adults was added. Incubations were performed for 48 h at 37′C, under shaking (90 rpm) and anaerobic conditions and protected from light. […] For the second set of in vitro experiments, two techniques were combined according to Vandeputte et al.
A general note: A flow cytometer gives signals particle by particle.

Test [3] has the same test system. Nature of the test: Microbiome diversity, alpha and beta (second set). Here is the method:
as §1

`CC1=C(/C=C/C(C)=C/C=C/C(C)=C/C=C/C=C(C)/C=C/C=C(C)/C=C/C2=C(C)CCCC2(C)C)C(C)(C)CCC1` [β-carotene]: the butyrate production entry in test [1] (0.2× dose, donor C) is reported as “increase butyrate production”. Further, in test [1] (1× dose, both donors), the acetate production entry was “increase acetate production”, the butyrate production entry is on record as “increase butyrate production” and the “total SCFA production” value is “increase total SCFA production”. In addition, the propionate production result in test [1] (1× dose, donor C) is “increase propionate production”. Also, in test [1] (5× dose, both donors), the acetate production entry is “increase acetate production” and the “total SCFA production” value is “increase total SCFA production”. Also, the propionate production entry in test [1] (5× dose, donor C) is given as “increase propionate production”. The Bifidobacteriaceae relative abundance entry in test [2] (1× dose, both donors) was “increase Bifidobacteriaceae relative abundance”. Also, in test [2] (1× dose, donor C), the Clostridiaceae relative abundance entry is listed as “increase Clostridiaceae relative abundance” and the Prevotellaceae relative abundance result is listed as “increase Prevotellaceae relative abundance”. In addition, in test [2] (1× dose, donor D), the Coriobacteriaceae relative abundance entry is “increase Coriobacteriaceae relative abundance”, the “Faecalibacterium prausnitzii relative abundance” value is recorded as “increase Faecalibacterium prausnitzii relative abundance” and the Veillonellaceae relative abundance entry is recorded as “increase Veillonellaceae relative abundance”. In addition, in test [2] (5× dose, both donors), the Akkermansiaceae relative abundance result is listed as “increase Akkermansiaceae relative abundance”, the Bifidobacteriaceae relative abundance entry is given as “increase Bifidobacteriaceae relative abundance”, the Desulfovibrionaceae relative abundance result was “decrease Desulfovibrionaceae relative abundance” and the Eggerthellaceae relative abundance entry is “increase Eggerthellaceae relative abundance”. In addition, in test [2] (5× dose, donor D), the Barnesiellaceae relative abundance entry is reported as “increase Barnesiellaceae relative abundance”, the Coriobacteriaceae relative abundance entry was “increase Coriobacteriaceae relative abundance”, the “Faecalibacterium prausnitzii relative abundance” value is on record as “increase Faecalibacterium prausnitzii relative abundance” and the Veillonellaceae relative abundance result is recorded as “increase Veillonellaceae relative abundance”. Besides, the “beta-diversity (Bray-Curtis distance to control)” value (“beta-diversity” below) in test [3] (0.2× dose, donor D) is on record as “increases beta-diversity”. Also, in test [3] (1× dose, both donors), the “beta-diversity” value is “increases beta-diversity”. Further, the “beta-diversity” value in test [3] (1× dose, donor D) is “increases beta-diversity”. Besides, the “beta-diversity” value in test [3] (5× dose, both donors) is “increases beta-diversity”.
With Calcium D-Pantothenate [vitamin B5], the propionate production result in test [1] (0.2× dose, donor C) is recorded as “increase propionate production”. In addition, in test [1] (5× dose, both donors), the “branched SCFA production” value is listed as “decrease branched SCFA production”. In addition, in test [2] (0.2× dose, donor D), the Akkermansiaceae relative abundance entry is given as “increase Akkermansiaceae relative abundance”, the “Faecalibacterium prausnitzii relative abundance” value was “increase Faecalibacterium prausnitzii relative abundance” and the Veillonellaceae relative abundance result is reported as “increase Veillonellaceae relative abundance”. In addition, in test [2] (1× dose, donor D), the Erysipelotrichaceae relative abundance result is “increase Erysipelotrichaceae relative abundance” and the “Faecalibacterium prausnitzii relative abundance” value is “increase Faecalibacterium prausnitzii relative abundance”. For the same compound, in test [2] (5× dose, both donors), the Bifidobacteriaceae relative abundance entry is “increase Bifidobacteriaceae relative abundance”. For the same compound, in test [2] (5× dose, donor C), the Desulfovibrionaceae relative abundance result is reported as “decrease Desulfovibrionaceae relative abundance”. Moreover, the “Faecalibacterium prausnitzii relative abundance” value in test [2] (5× dose, donor D) is recorded as “increase Faecalibacterium prausnitzii relative abundance”. Also, the “alpha-diversity (Shannon diversity index)” value in test [3] (0.2× dose, donor D) was “increases alpha-diversity”. Further, the “beta-diversity” value in test [3] (5× dose, both donors) was “increases beta-diversity”. Further, the “alpha-diversity (Shannon diversity index)” value in test [3] (5× dose, donor D) was “increases alpha-diversity”.
